Counter-ions that a name gives are not always drawn.
How the values were obtained:
back skin of minipigs = assay: In vivo skin fluorescence study in minipigs (FluoDerm); details: 15% cream in Unguentum Merck, 0.5 g per site, 1.5, 5 and 12 hours after application, FIG. 1
Method: Compound 1c (carboxymethyl 5-amino-4-oxopentanoate hydrobromide, prepared according to Example 1c) was formulated as a cream in Unguentum Merck (15%, 150 mg/g; 0.56 mmol).
The cream was administered to the back skin of minipigs. Prior to application of the cream, the surrounding skin was cleaned with sterile water and gauze, if necessary. 0.5 g cream was applied to each test site (50 mm in diameter) resulting in a homogenous cream layer and then covered with a dressing (Tegaderm®). The gauze Vet-Flex® was used to keep the dressing in place.
Skin fluorescence at 630 nm was assessed prior to cream application and at 1.5, 5 and 12 hours after cream application using the FluoDerm instrument (DiaMedico ApS, Denmark) according to the manufacturers instructions. The FluoDerm instrument is a hand-held device for objective real-time in vivo measuring of average fluorescence over a circular field with diameter 40 mm. Measurements were electronically corrected for the actual ambient light.

[1] = tested on: sebaceous glands and epidermis of minipig skin; assay: Minipig skin biopsies, fluorescence microscopy; assay type: in vivo, minipigs; details: minipig skin biopsy sections; 15% cream
Method: The cream was administered as described above. At t=0 (i.e. prior to administration of the cream), 1.5, 5 and 12 hours, biopsy samples were taken using a 10 mm biopsy punch (AcuPunch 10 mm, Acuderm, USA). The samples were taken and handled in a minimally illuminated room. Each sample was trimmed free of any subcutaneous fatty tissue and thereafter cut in half. Each sample was then snap frozen in liquid nitrogen, in an aluminium foil bag or similar, and transferred to a −80° C. freezer.
The biopsy samples were sectioned at 10 μm and again care was taken to minimize the surrounding light. When sebaceous glands and epidermis could be identified, a series of 3 consecutive sections was prepared from each sample. The sections were examined within 15 minutes in a Leica DMRXE microscope equipped for both ordinary light microscopy and fluorescence microscopy. Epidermis and sebaceous glands were localized using conventional light microscopy. This was carried out within 5 seconds and then the light source was changed to a mercury lamp/fluorescence with filter set; excitation filter 390-447 nm, beam splitter 455 nm and an emission filter >600 nm. The sections were immediately photographed. Without moving the specimen the light source was changed back to conventional light microscopy and the sections were photographed in exactly the same position as for the fluorescence microscopy. As well as the epidermis and sebaceous glands, the dermis was analysed and if fluorescence was found also photographed. To further investigate localisation of all analyzed structures, the sections were stained with hematoxylin/eosin.
Image analysis was performed using the software program, Image J (version Fiji-win32.exe). With this program, average fluorescence intensity per pixel was measured from the saved images.

[2] = tested on: S. aureus strain DSM 20231 (ATCC 12600); assay: Dark toxicity in bacteria; assay type: cell-based, Staphylococcus aureus; details: 0.001, 0.1, 1 and 10 mM, plate not illuminated
Method: S. aureus strain DSM 20231 (ATCC 12600). The bacterial strain was grown for 24 hours on heart infusion agar (Difco) at 35-37° C. prior to carrying out the experiment and re-suspended in 20 mM PIPES, pH 7.2-7.4 at a concentration corresponding to a McFarland 0.5 standard (approximately 1-5×10^8 CFU/mL). In order to ensure viable cell cultures and to check the inoculum size and purity, bacterial stocks were made immediately prior to experimentation and the CFU/mL determined in a standard colony assay.
“Dark toxicity”, i.e. the toxic effect of the compounds in the absence of light (and therefore unrelated to PDT effects), can include bacteria cell death and therefore can interfere with the accurate measurement of the PDT effect, which also results in bacterial cell death. Dark toxicity can be measured by determining the toxicity of each compound under the same experimental conditions, but in the absence of light, thereby avoiding any PDT effect. The use of the compounds of the invention under conditions that produce low dark toxicity is advantageous because dark toxicity effects could also include harming or killing non-target cells and interfering with the PDT treatment itself. […]
Dark toxicity was determined as described in the paragraph “PDT-treatment” below, except that the plate was not illuminated. […]

[3] = tested on: Salmonella typhimurium, TA98 and TA100; assay: Ames test (mutagenic and photomutagenic potential); assay type: cell-based; details: absence and presence of S-9, absence and presence of visible light
Source text: The Ames test (see B. N. Ames et al, Methods for detecting carcinogens and mutagens with the Salmonella/mammalian-microsome mutagenicity test. Mutation Research 31, 347-364, 1975) is a standard test method approved by the regulatory authorities to detect an ability of a test chemical compound to induce mutation in certain bacterial strains. If a test chemical compound induces such mutations, it cannot be used in a pharmaceutical compound for use in humans.
The objective of this study was to evaluate the mutagenic potential and photomutagenic potential of compound 1c, carboxymethyl 5-amino-4-oxopentanoate hydrobromide (prepared according to Example 1c) by examining its ability to revert two histidine-requiring strains of Salmonella typhimurium, TA98 and TA100, in the absence and presence of a rat liver metabolising system (S-9) and also in the absence and presence of visible light. The latter was assessed since compound 1c is taken up by the bacteria cells and converted into a photosensitiser, which, upon illumination of said cells, might induce mutagenic products.

[4] = tested on: skin of healthy nude mice; assay: In vivo skin fluorescence study in healthy nude mice; details: cream in Unguentum Merck, equimolar (16-19%), about 100 μl on back, 6 hours in the dark, excitation 365 and 405 nm, mean of 5 mice
Method: A study was carried out to assess the potential of the compounds of the invention as precursors for photosensitisers for skin application. As such, the compounds of the invention need to be able to penetrate the skin, to be taken up by the cells in the skin and to be converted to photosensitisers. The result of this process can be visualized by exposing the skin to light which excites the photosensitiser molecules and to determine the amount of energy which is released in the form of fluorescence when the excited photosensitiser molecules relax to an energetically lower state.
Compounds 2, 4 and 7 above were formulated as creams in Unguentum Merck. The compounds were tested in equimolar amounts:
3 groups of mice (5 mice/group, each mouse of one group receiving the same cream formulation) were included in the experiment. About 100 μl of cream formulation was applied onto the back of one mouse. The mice were kept in the dark for 6 hours prior to skin fluorescence measurement to avoid photobleaching. For assessment of skin fluorescence, a fluorescence camera (Medeikonos PDD/PDT, Medeikonos AB, Gothenburg, Sweden) was used and images of the back of each mouse were taken. Excitation was carried out at wavelengths of 365 and 405 nm and 2 s illumination time. Each image was calibrated to a fluorescence standard (Uranyl Standard, J&M, Analytische Mess- and Regeltechnik GmbH, Hamburg, Germany) and adjusted for background fluorescence. The mean amount of skin fluorescence in each image was calculated by means of image analyzer-software (MatLab 7.2.0.232, Math-Works, Natick, Mass., USA) and the mean amount of skin fluorescence for each group of mice (5 mice/compound) was calculated.

[5] = tested on: Rat bladder cells (AY-27); assay: PpIX measurements in rat bladder cells; assay type: cell-based; details: AY-27 cells; for PpIX Mean ± SD: 2 hours incubation
Method: Rat bladder cells (AY-27) were grown in the culture medium (RPMI 1640 supplemented with 9% fetal calf serum 1% L-glutamin (200 mM) and 1% penicillin (10 000 UI), streptomycin (10 000 μg·mL^−1). Exponentially growing cells (AY-27) were incubated for 2 hours with freshly prepared solutions of 0.8 mM HAL (which is a tenth of the concentration which is used for bladder cancer […]). Control cells received serum-free medium without any test or reference compounds. After the incubation, the solutions or the medium was discarded and the cells were rinsed 2 times with ice-cooled PBS. PpIX was extracted from cells using an ice-cold lysis extraction mixture, consisting of ethanol/DMSO/acetic acid (80/20/1, v/v/v). The cell lysate was centrifuged (400 g, 10 min, 2° C.), the pellet was grinded and the suspension was sonicated for 15 min before being centrifuged. The fluorescence signal of PpIX was measured with a Perkin-Elmer LS 55 spectrometer (Perkin-Elmer, Beaconsfield, UK) and expressed as a function of the protein content. The fluorescence intensity at 635 nm in each sample was reported on a calibration curve established with PpIX (Sigma-Aldrich, France) diluted in extraction mixture as described above. The PpIX concentration was expressed relative to the protein content. Briefly, a lysis buffer mixture (1 mM EDTA, 1% Triton X-100 and 10 mM Tris-HCl; pH 7.4) was added to frozen cell dishes together with 500 mM PMSF (anti-protease) solution in DMSO. Lysates were kept on ice for 30 minutes and centrifuged at 4° C. for 20 minutes at 15 000 g. The protein content was then measured against a BSA calibration curve by a Biorad DC protein assay kit (Bio-Rad, France) based on a method developed by Lowry.

[6] = tested on: Rat bladder cells (AY-27); assay: Cytotoxicity in rat bladder cells (MTT test); assay type: cell-based; details: AY-27 cells; for Cytotoxicity: 2 hours, MTT test
Method: All experiments were performed in 4-5 replicates under subdued light. For concentrations of compounds 1 mM, the cytotoxicity was assessed with MTT test. Exponentially growing cells were incubated with freshly prepared solution or medium as described above for 2 hours in 96-well plates. After the incubation, the solutions or the medium was discarded and the cells were washed twice with PBS. Then 50 μl of MTT (2.5 mg·ml^−1) was added to 150 μl of RPMI serum-free medium per well and incubated for 3 hours. Absorbance was measured by dissolving formazan crystals with 50 μl of DMSO. The absorbance was normalized to that of control cells.

| SMILES | Skin fluorescence at 630 nm over time (back skin of minipigs) | Selectivity for sebaceous glands [1] | Time after cream application at which fluorescence was also seen in the epidermis [1] | Time after cream application at which fluorescence was seen in the sebaceous glands [1] | Dark toxicity [2] | Induction of mutation or photomutation [3] | Skin fluorescence [4] | PpIX Mean ± SD ([5]; 1 mM) | PpIX Mean ± SD ([5]; 5 mM) | PpIX Mean ± SD ([5]; 15 mM) | PpIX concentration compared to HAL (0.8 mM) ([5]; compound at 1 mM) | PpIX concentration compared to HAL (0.8 mM) ([5]; compound at 5 mM) | Cytotoxicity ([6]; 1 mM) | Cytotoxicity ([6]; 5 mM) | Cytotoxicity ([6]; 15 mM) | Cytotoxicity at higher concentration ([6]; concentration higher than 5 mM) |
| --- | --- | --- | --- | --- | --- | --- | --- | --- | --- | --- | --- | --- | --- | --- | --- | --- |
| NCC(=O)CCC(=O)OCC(=O)O [Compound 1c, carboxymethyl 5-amino-4-oxopentanoate hydrobromide] | skin fluorescence increased with time | shows a selectivity for sebaceous glands | 5 h | 1.5 h | No dark toxicity was observed | did not induce mutation or photomutation |  |  |  |  |  |  |  |  |  |  |
| NCC(=O)CCC(=O)OCCC(=O)O [Compound 4, 2-carboxyethyl 5-amino-4-oxopentanoate hydrobromide] |  |  |  |  | No dark toxicity was observed |  | 8473 a.u. | 45 ± 8 pmoles/mg protein | 141 ± 24 pmoles/mg protein | 180 ± 94 pmoles/mg protein | significantly lower compared to HAL | About half of the PpIX concentration of HAL | 3 % of control | 14 % of control | 39 % of control | cytotoxicity was induced |

From US9249086B2, “Carboxylic acid ALA esters” (Photocure ASA, priority 2012, dated 2016)
